Test results reported in the supplement of paper PMC10307832.

Assays:
Test in all cases: relative viability (nuclei count vs DMSO), 5 days (fraction); higher = more cells survive
4EGI-1 + Navitoclax = compound: O=C(O)C(Cc1ccccc1[N+](=O)[O-])=NNc1nc(-c2ccc(Cl)c(Cl)c2)cs1 (mixture of isomers) [4EGI-1] + CC1(C)CCC(c2ccc(Cl)cc2)=C(CN2CCN(c3ccc(C(=O)NS(=O)(=O)c4ccc(N[C@H](CCN5CCOCC5)CSc5ccccc5)c(S(=O)(=O)C(F)(F)F)c4)cc3)CC2)C1 [Navitoclax] (partner 0.5 µM)
How it was run: (§1)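 Nuclei were stained with Hoechst during a one-step fixation (final 0.05% Triton X-100, 1% formaldehyde, 1 ug/ml Hoechst) carried out 5 days after dosing, then counted on 4× images. The cells, lung cancer lines in 1536-well plates, had been dosed by pin tool the day after seeding with one drug alone or a fixed anchor-drug dose plus five library-drug doses (not always all listed) in √10 steps. Relative viability is the nuclei count in treated wells divided by that in vehicle wells, and each value is the median of duplicate plates.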

4EGI-1 + Lapatinib = compound: O=C(O)C(Cc1ccccc1[N+](=O)[O-])=NNc1nc(-c2ccc(Cl)c(Cl)c2)cs1 (mixture of isomers) [4EGI-1] + CS(=O)(=O)CCNCc1ccc(-c2ccc3ncnc(Nc4ccc(OCc5cccc(F)c5)c(Cl)c4)c3c2)o1 [Lapatinib] (partner 2 µM)
How it was run: as §1

XMD8-85 + Pemetrexed = compound: CN1CCN(CC1)C2=CC(=C(C=C2)NC3=NC=C4C(=N3)N(C5=CC=CC=C5C(=O)N4C)C)OC [XMD8-85] + Nc1nc2[nH]cc(CCc3ccc(C(=O)N[C@@H](CCC(=O)O)C(=O)O)cc3)c2c(=O)[nH]1 [Pemetrexed] (partner 0.2 µM)
How it was run: as §1

4EGI-1 + Crizotinib = compound: O=C(O)C(Cc1ccccc1[N+](=O)[O-])=NNc1nc(-c2ccc(Cl)c(Cl)c2)cs1 (mixture of isomers) [4EGI-1] + C[C@@H](Oc1cc(-c2cnn(C3CCNCC3)c2)cnc1N)c1c(Cl)ccc(F)c1Cl [Crizotinib] (partner 1 µM)
How it was run: as §1

Question: For NCI-H1792, which relative viability (4EGI-1 + Navitoclax; first compound 0.5 µM) is on record?
Answer: The relative viability was 0.618.

Question: And the relative viability (4EGI-1 + Navitoclax; first compound 1.581 µM)?
Answer: Its relative viability is 0.498.

Question: What about the relative viability (4EGI-1 + Navitoclax; first compound 5 µM) of the same cell line?
Answer: The relative viability was 0.607.

Question: And the relative viability (4EGI-1 + Navitoclax; first compound 15.81 µM)?
Answer: Its relative viability is 0.552.

Question: What about the relative viability (4EGI-1 + Navitoclax; first compound 50 µM) of the same cell line?
Answer: The relative viability was 0.542.

Question: What about the relative viability (4EGI-1 + Lapatinib; first compound 0.5 µM) of the same cell line?
Answer: Its relative viability is 0.84.

Question: What about the relative viability (4EGI-1 + Lapatinib; first compound 1.581 µM) of the same cell line?
Answer: The relative viability was 0.864.

Question: What about the relative viability (4EGI-1 + Lapatinib; first compound 5 µM) of the same cell line?
Answer: Its relative viability is 0.899.

Question: And the relative viability (4EGI-1 + Lapatinib; first compound 15.81 µM)?
Answer: The relative viability was 0.816.

Question: And the relative viability (4EGI-1 + Lapatinib; first compound 50 µM)?
Answer: The relative viability was 0.557.

Question: What about the relative viability (XMD8-85 + Pemetrexed; first compound 0.253 µM) of the same cell line?
Answer: The relative viability was 0.439.

Question: What about the relative viability (XMD8-85 + Pemetrexed; first compound 0.8 µM) of the same cell line?
Answer: Its relative viability is 0.889.

Question: And the relative viability (XMD8-85 + Pemetrexed; first compound 2.53 µM)?
Answer: Its relative viability is 0.924.

Question: And the relative viability (XMD8-85 + Pemetrexed; first compound 8 µM)?
Answer: Its relative viability is 0.818.

Question: And the relative viability (4EGI-1 + Crizotinib; first compound 0.5 µM)?
Answer: The relative viability was 0.963.

Question: What about the relative viability (4EGI-1 + Crizotinib; first compound 1.581 µM) of the same cell line?
Answer: The relative viability was 0.772.

Question: What about the relative viability (4EGI-1 + Crizotinib; first compound 5 µM) of the same cell line?
Answer: Its relative viability is 0.963.

Question: What about the relative viability (4EGI-1 + Crizotinib; first compound 15.81 µM) of the same cell line?
Answer: Its relative viability is 0.842.

Question: And the relative viability (4EGI-1 + Crizotinib; first compound 50 µM)?
Answer: Its relative viability is 0.823.
